# Target: T1, α7 nicotinic acetylcholine receptor (α7nAChR) (Mus musculus, UniProt P49582)
# T1 construct: gene Chrna7; native receptor in hippocampal CA1 pyramidal cells (brain slices)
# Assay: whole cell patch-clamp of ACh-evoked inward current in mouse hippocampal slices, dose-response
# T1 sequence (P49582 23-502): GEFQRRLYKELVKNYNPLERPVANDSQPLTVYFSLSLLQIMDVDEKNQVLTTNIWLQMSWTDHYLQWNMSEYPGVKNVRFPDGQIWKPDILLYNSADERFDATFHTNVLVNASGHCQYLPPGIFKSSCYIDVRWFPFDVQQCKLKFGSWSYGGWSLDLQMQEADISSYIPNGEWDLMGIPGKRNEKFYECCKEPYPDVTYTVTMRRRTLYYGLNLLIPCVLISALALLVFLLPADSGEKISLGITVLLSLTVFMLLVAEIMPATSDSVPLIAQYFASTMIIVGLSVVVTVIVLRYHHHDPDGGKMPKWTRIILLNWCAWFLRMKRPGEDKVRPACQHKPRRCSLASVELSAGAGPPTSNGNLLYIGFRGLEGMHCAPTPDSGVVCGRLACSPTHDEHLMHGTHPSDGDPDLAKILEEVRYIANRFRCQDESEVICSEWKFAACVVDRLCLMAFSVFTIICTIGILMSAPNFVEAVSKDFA
structure (smiles),measurement,value
CC(=O)OCC[N+](C)(C)C [acetylcholine],EC50,431 µM

# From paper PMC7801264, “Farnesyl Transferase Inhibitor Lonafarnib Enhances α7nAChR Expression Through Inhibiting DNA Methylation of CHRNA7 and Increases α7nAChR Membrane Trafficking” (Frontiers in Pharmacology, 2020)
